{"source": "patent US6783949B1", "about": "“Processes for determining whether a test substance contains lipases or lipase inhibitors” (Aventis Pharma Deutschland GmbH, priority 1999, dated 2004)", "target": "T1, HSL (Rattus norvegicus, UniProt P15304)", "T1 construct": "The partially purified HSL can be stored at −70° C. for 4 to 6 weeks; from tissue; host or cells: rat epididymal fat cells (male Wistar rats)", "T1 sequence (P15304 1-768 isoform P15304-2)": "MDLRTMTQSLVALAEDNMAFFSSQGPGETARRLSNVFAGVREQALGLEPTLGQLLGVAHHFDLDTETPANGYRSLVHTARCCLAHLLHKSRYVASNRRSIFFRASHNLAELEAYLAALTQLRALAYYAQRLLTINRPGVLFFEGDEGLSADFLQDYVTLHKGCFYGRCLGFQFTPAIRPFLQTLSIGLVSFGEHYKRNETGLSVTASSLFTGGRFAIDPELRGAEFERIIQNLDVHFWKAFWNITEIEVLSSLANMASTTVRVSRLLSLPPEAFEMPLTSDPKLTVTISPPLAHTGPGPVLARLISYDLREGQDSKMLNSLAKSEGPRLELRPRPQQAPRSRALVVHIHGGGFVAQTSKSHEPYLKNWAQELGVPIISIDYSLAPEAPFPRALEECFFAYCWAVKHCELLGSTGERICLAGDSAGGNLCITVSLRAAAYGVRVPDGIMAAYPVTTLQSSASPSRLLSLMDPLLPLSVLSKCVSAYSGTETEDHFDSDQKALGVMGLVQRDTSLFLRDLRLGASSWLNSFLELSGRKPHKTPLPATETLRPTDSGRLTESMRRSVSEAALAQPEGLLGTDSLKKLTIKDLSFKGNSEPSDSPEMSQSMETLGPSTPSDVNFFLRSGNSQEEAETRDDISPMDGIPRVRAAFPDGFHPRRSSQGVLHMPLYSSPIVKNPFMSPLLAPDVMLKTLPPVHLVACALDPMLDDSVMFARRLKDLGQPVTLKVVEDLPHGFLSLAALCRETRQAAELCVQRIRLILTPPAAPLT", "assay": "Direct NAG assay (released NBD-FA, TLC/fluorimetry)", "format": "biochemical", "conditions": "for Absorption change, Released NBD-FA, 550 nm: 60 min, NAG 0.05 mg/ml", "experimental": "Isolated rat fat cells are obtained from epididymal fatty tissue from untreated male rats (Wistar, 220-250 g) by collagenase treatment according to published processes. The fat cells from 10 rats are washed three times by flotation with 50 ml each of homogenization buffer ([…], pH 7.4, 0.25 M sucrose, 1 mM ethylenediamine-N,N,N′,N′-tetraacetic acid (EDTA), 1 mM dithiothreitol (DTT), 10 μg/ml of leupeptin, 10 μg/ml of antipain, 20 μg/ml of pepstatin) and finally taken up in 10 ml of homogenization buffer. The fat cells are homogenized in a Teflon-in-glass homogenizer (Braun-Melsungen) by 10 strokes at 1500 rpm and 15° C. The homogenizate is centrifuged (Sorvall SM24 tubes, 5000 rpm, 10 min, 4° C.). The […] between the overlying fatty layer and the pellet is removed and the centrifugation is repeated. The […] resulting from this is centrifuged again (Sorvall SM24 tubes, 20,000 rpm, 45 min, 4° C.). […] After incubation for 60 min at 4° C. (shake at intervals of 15 min), the batch is centrifuged (Sorvall SM24 tubes, 3000 rpm, 10 min, 4° C.). The supernatant is brought to pH 5.2 by addition of glacial acetic acid and incubated at 4° C. for 30 min. The precipitates are collected by centrifugation (Sorvall SS34, 12,000 rpm, 10 min, 4° C.) and suspended in 2.5 ml of 20 mM TRIS/HCl, pH 7.0, 1 mM EDTA, 65 mM NaCl, 13% sucrose, 1 mM DTT, 10 μg/ml of leupeptin/pepstatin/antipain. The suspension is dialyzed overnight at 4° C. against 25 mM TRIS/HCl, pH 7.4, 50% glycerol, 1 mM DTT, and 10 μg/ml of leupeptin, pepstatin, and antipain and then applied to a hydroxylapatite column (0.1 g per 1 ml of suspension, equilibrated with 10 mM potassium phosphate, pH 7.0, 30% glycerol, 1 mM DTT). The column is washed with four volumes of equilibration buffer at a flow rate of 20 to 30 ml/h. The HSL is eluted with a volume of equilibration buffer which contains 0.5 M potassium phosphate, then dialyzed (see above) and concentrated 5 to 10 times by ultrafiltration (Amicon Diaflo PM 10 filter) at 4° C. The partially purified HSL can be stored at −70° C. for 4 to 6 weeks.\n6 mg of phosphatidylcholine and 6 mg of phosphatidylinositol are dissolved in 1 ml of chloroform each. 10 mg of NAG are dissolved in 1 ml of chloroform. Two parts of phosphatidylinositol solution (e.g., 83.5 μl) and one part of phosphatidylcholine solution (e.g., 41.5 μl) and 100 μl of NAG solution are pipetted together into plastic scintillation containers (final concentration in the test: 0.0375 mg of phospholipid/ml; 0.05 mg/NAG/ml). The chloroform (225 μl total volume) is completely removed by overblowing with a stream of N2. The dried substrate can be stored at 4° C. for up to three days. For the preparation of the phospholipid vesicles/micelles having intercalated NAG (on the test day), the dried substrate is taken up in 20 ml of assay buffer (25 mM TRIS/HCl, pH 7.4; 150 mM NaCl) and two ultrasonic treatments with an ultrasonic probe (Branson Sonifier type 11, standard microtip): 1st treatment setting 2, 2×1 min, in between in each case 1 min on ice; 2nd treatment setting 4, 2×1 min, in between in each case 1 min on ice. During this procedure, the color of the substrate solution changed from yellow (extinction maximum 481 nm) to red (extinction maximum 550 nm) due to intercalation of NAG between the phospholipid molecules of the vesicles/micelles. Before use as a substrate (within the next 2 h), the solution is additionally incubated on ice for 15 min.\nAltematively to the measurement of the extinction change of the substrate solution, the products of the HSL reaction are investigated by phase separation/thin-layer chromatography. For this, the incubation batch (200 μl total volume, see indirect NAG assay) is mixed in 2 ml Eppendorf vessels with 1.3 ml of methanol/chloroform/heptane (10:9:7) and then with 0.4 ml of 0.1 M NaOH. After intensive mixing (10 sec), the phase separation is initiated by centrifugation (800×g, 20 min, room temperature). […]", "data": [{"compound": "O=C(CCCCCCCCCCCNc1ccc([N+](=O)[O-])c2nonc12)OCC(O)CO", "note": "(racemic) [Compound 3]", "values": [{"measurement": "IC50", "result": "1.02 ± 0.25", "unit": "µM"}]}, {"compound": "O=C(CCCCCCCCCCCNc1ccc([N+](=O)[O-])c2nonc12)OCC(O)CO", "note": "(stereo not shown) [Compound (3)]", "values": [{"measurement": "Absorption change, Released NBD-FA, 550 nm", "setting": "HSL 1 μg", "result": "17 ± 2", "unit": "arb. units"}, {"measurement": "Absorption change, Released NBD-FA, 550 nm", "setting": "HSL 2 μg", "result": "44 ± 5", "unit": "arb. units"}, {"measurement": "Absorption change, Released NBD-FA, 550 nm", "setting": "HSL 5 μg", "result": "103 ± 11", "unit": "arb. units"}, {"measurement": "Absorption change, Released NBD-FA, 550 nm", "setting": "HSL 7.5 μg", "result": "157 ± 21", "unit": "arb. units"}, {"measurement": "Absorption change, Released NBD-FA, 550 nm", "setting": "HSL 10 μg", "result": "215 ± 24", "unit": "arb. units"}, {"measurement": "Absorption change, Released NBD-FA, 550 nm", "setting": "HSL 15 μg", "result": "320 ± 29", "unit": "arb. units"}, {"measurement": "Absorption change, Released NBD-FA, 550 nm", "setting": "HSL 20 μg", "result": "432 ± 53", "unit": "arb. units"}, {"measurement": "Absorption change, Released NBD-FA, 550 nm", "setting": "HSL 25 μg", "result": "544 ± 61", "unit": "arb. units"}, {"measurement": "Absorption change, Released NBD-FA, 550 nm", "setting": "HSL 30 μg", "result": "616 ± 56", "unit": "arb. units"}, {"measurement": "Absorption change, Released NBD-FA, 550 nm", "setting": "HSL 40 μg", "result": "693 ± 67", "unit": "arb. units"}, {"measurement": "Absorption change, Released NBD-FA, 550 nm", "setting": "HSL 60 μg", "result": "733 ± 80", "unit": "arb. units"}, {"measurement": "Absorption change, Released NBD-FA, 550 nm", "setting": "HSL 80 μg", "result": "746 ± 98", "unit": "arb. units"}]}]}
